From patent publication US20200131196A1 (Mount Tam Therapeutics, Inc., priority 2017, published 2020)

Key:
[1] = test system: PC-3; assay: OncoPanel cell proliferation assay, PC-3; settings: PC-3; 3.18E-05 microM
Protocol: (§6) Cells were seeded into 384-well plates and incubated in a humidified atmosphere of 5% CO2 at 37° C. Compounds were added the day following cell seeding. At the same time, a time zero untreated cell plate was generated. After a 3-day incubation period, cells were fixed and stained to allow fluorescence imaging of nuclei. Compounds (1 mM stock solutions) were serially diluted in half-log steps from the highest test concentration (1 micromol), and assayed over 10 concentrations with a maximum assay concentration of 0.1% DMSO. Automated fluorescence microscopy was carried out using a Molecular Devices ImageXpress Micro XL high-content imager, and images were collected with a 4× objective. 16-bit TIFF images were acquired and analyzed with MetaXpress 5.1.0.41 software.

[2] = test system: U2OS; assay: OncoPanel cell proliferation assay, U2OS; assay type: cell-based, human
Protocol: (§1) Cells were seeded into 384-well plates and incubated in a humidified atmosphere of 5% CO2 at 37° C. Compounds were added the day following cell seeding. At the same time, a time zero untreated cell plate was generated. After a 3-day incubation period, cells were fixed and stained to allow fluorescence imaging of nuclei. Compounds (1 mM stock solutions) were serially diluted in half-log steps from the highest test concentration ([…]), and assayed over 10 concentrations with a maximum assay concentration of 0.1% DMSO. Automated fluorescence microscopy was carried out using a Molecular Devices ImageXpress Micro XL high-content imager, and images were collected with a 4× objective. 16-bit TIFF images were acquired and analyzed with MetaXpress 5.1.0.41 software.
(§2) Cell proliferation was measured by the fluorescence intensity of an incorporated nuclear dye. The output is referred to as the relative cell count, where the measured nuclear intensity is transformed to percent of control (POC) using the following formula: […]
(§3) Cellular response parameters were calculated using nonlinear regression to a sigmoidal single-site dose response model:
(§4) GI50 is the concentration needed to reduce the observed growth by half (midway between the curve maximum and the time zero value). […] In rare instances, values <0 or >10 may be observed. […] Curve-fitting, calculations, and report generation was performed using a custom data reduction engine and MathIQ based software (AIM).

[3] = test system: CML-T1; assay: OncoPanel cell proliferation assay, CML-T1; assay type: cell-based, human
Protocol: as §1, with “Cells were grown in RPMI 1640, 10% FBS, 2 mM L-alanyl-L-glutamine, 1 mM Na pyruvate, or a special medium. Cells” for “Cells”
as §2, §3
(§5) EC50 is the test compound concentration at the curve inflection point or half the effective response (parameter C of the fitted curve solution). GI50 is the concentration needed to reduce the observed growth by half (midway between the curve maximum and the time zero value). “Cell Count Activity Area” is an estimate of the integrated area above the curve (Barretina, et al. The Cancer Cell Line Encyclopedia enables predictive modelling of anticancer drug sensitivity. Nature 483: 603-607). […] In rare instances, values <0 or >10 may be observed. […] Curve-fitting, calculations, and report generation was performed using a custom data reduction engine and MathIQ based software (AIM).

[4] = test system: SW579; assay: OncoPanel cell proliferation assay, SW579; assay type: cell-based, human
Protocol: as §1, with “Cells were grown in RPMI 1640, 10% FBS, 2 mM L-alanyl-L-glutamine, 1 mM Na pyruvate, or a special medium. Cells” for “Cells”
as §2, §3, §5

[5] = test system: AGS; assay: OncoPanel cell proliferation assay, AGS; assay type: cell-based, human
Protocol: as §1, with “Cells were grown in RPMI 1640, 10% FBS, 2 mM L-alanyl-L-glutamine, 1 mM Na pyruvate, or a special medium. Cells” for “Cells”
as §2, §3, §5

[6] = test system: SHP-77; assay: OncoPanel cell proliferation assay, SHP-77
Protocol: as §6

[7] = test system: A388; assay: OncoPanel cell proliferation assay, A388; assay type: cell-based, human
Protocol: as §1, §2, §3, §4

[8] = Homo sapiens, read-out: Cell Count EC50
[9] = Homo sapiens, read-out: Cell Count GI50
[10] = Homo sapiens, read-out: Cell Count IC50

CO[C@H]1C[C@@H]2CC[C@@H](C)[C@@](O)(O2)C(=O)C(=O)N2CCCC[C@H]2C(=O)O[C@H]([C@H](C)C[C@H]2C[C@H]3C[C@@H]2C[C@@H]3O)CC(=O)[C@H](C)/C=C(\C)[C@@H](O)[C@@H](OC)C(=O)[C@H](C)C[C@H](C)/C=C/C=C/C=C/1C [Formula II, C37-[(1R,2S,4R,5S)-5-hyhroxybicyclo[2.2.1]heptane] rapamycin]
Relative cell count (%) Mean [1]: 96.9% | Cell Count Activity Area [2]: 2.61 | Relative cell count (%) Mean ([2]; 1.00E+00 microM): 49.8% | Relative cell count (%) Mean ([2]; 1.00E-01 microM): 51.6% | Relative cell count (%) Mean ([2]; 1.00E-02 microM): 66.4% | Relative cell count (%) Mean ([2]; 1.00E-03 microM): 78.8% | Relative cell count (%) Mean ([2]; 1.01E-04 microM): 98.9% | Relative cell count (%) Mean ([2]; 3.16E-01 microM): 47.3% | Relative cell count (%) Mean ([2]; 3.17E-02 microM): 56.3% | Relative cell count (%) Mean ([2]; 3.17E-03 microM): 81.3% | Relative cell count (%) Mean ([2]; 3.18E-04 microM): 98.6% | Relative cell count (%) Mean ([2]; 3.18E-05 microM): 92.7% | EC50 [2, 8]: 5.4 nM | GI50 [2, 9]: 35 nM | IC50 [2, 10]: 324 nM | Cell Count Activity Area [3]: 3.68 | Relative cell count (%) Mean ([3]; 1.00E+00 microM): 44.0% | Relative cell count (%) Mean ([3]; 1.00E-01 microM): 46.4% | Relative cell count (%) Mean ([3]; 1.00E-02 microM): 54.5% | Relative cell count (%) Mean ([3]; 1.00E-03 microM): 67.7% | Relative cell count (%) Mean ([3]; 1.01E-04 microM): 96.1% | Relative cell count (%) Mean ([3]; 3.16E-01 microM): 42.4% | Relative cell count (%) Mean ([3]; 3.17E-02 microM): 46.2% | Relative cell count (%) Mean ([3]; 3.17E-03 microM): 59.5% | Relative cell count (%) Mean ([3]; 3.18E-04 microM): 78.8% | Relative cell count (%) Mean ([3]; 3.18E-05 microM): 96.6% | EC50 [3, 8]: 0.821 nM | GI50 [3, 9]: 3.64 nM | IC50 [3, 10]: 12.5 nM | Cell Count Activity Area [4]: 4.51 | Relative cell count (%) Mean ([4]; 1.00E+00 microM): 43.1% | Relative cell count (%) Mean ([4]; 1.00E-01 microM): 43.4% | Relative cell count (%) Mean ([4]; 1.00E-02 microM): 51.1% | Relative cell count (%) Mean ([4]; 1.00E-03 microM): 64.1% | Relative cell count (%) Mean ([4]; 1.01E-04 microM): 82.8% | Relative cell count (%) Mean ([4]; 3.16E-01 microM): 40.8% | Relative cell count (%) Mean ([4]; 3.17E-02 microM): 49.9% | Relative cell count (%) Mean ([4]; 3.17E-03 microM): 50.2% | Relative cell count (%) Mean ([4]; 3.18E-04 microM): 66.2% | Relative cell count (%) Mean ([4]; 3.18E-05 microM): 86.0% | EC50 [4, 8]: 0.204 nM | GI50 [4, 9]: 1.06 nM | IC50 [4, 10]: 4.52 nM | Cell Count Activity Area [5]: 5.29 | Relative cell count (%) Mean ([5]; 1.00E+00 microM): 41.7% | Relative cell count (%) Mean ([5]; 1.00E-01 microM): 44.3% | Relative cell count (%) Mean ([5]; 1.00E-02 microM): 41.0% | Relative cell count (%) Mean ([5]; 1.00E-03 microM): 48.7% | Relative cell count (%) Mean ([5]; 1.01E-04 microM): 87.1% | Relative cell count (%) Mean ([5]; 3.16E-01 microM): 40.7% | Relative cell count (%) Mean ([5]; 3.17E-02 microM): 42.8% | Relative cell count (%) Mean ([5]; 3.17E-03 microM): 51.4% | Relative cell count (%) Mean ([5]; 3.18E-04 microM): 63.8% | Relative cell count (%) Mean ([5]; 3.18E-05 microM): 124.5% | EC50 [5, 8]: 0.133 nM | GI50 [5, 9]: 0.245 nM | IC50 [5, 10]: 0.297 nM | EC50 ([6]; Homo sapiens, SHP77, read-out: Cell Count EC50): > 1000 nM | GI50 ([6]; Homo sapiens, SHP77, read-out: Cell Count GI50): > 1000 nM | IC50 ([6]; Homo sapiens, SHP77, read-out: Cell Count IC50): > 1000 nM | Cell Count Activity Area ([6]; SHP-77): 0.76 | Relative cell count (%) Mean ([6]; SHP-77, 1.00E+00 microM): 67.9% | Relative cell count (%) Mean ([6]; SHP-77, 1.00E-01 microM): 79.9% | Relative cell count (%) Mean ([6]; SHP-77, 1.00E-02 microM): 96.8% | Relative cell count (%) Mean ([6]; SHP-77, 1.00E-03 microM): 96.1% | Relative cell count (%) Mean ([6]; SHP-77, 1.01E-04 microM): 95.8% | Relative cell count (%) Mean ([6]; SHP-77, 3.16E-01 microM): 75.2% | Relative cell count (%) Mean ([6]; SHP-77, 3.17E-02 microM): 88.0% | Relative cell count (%) Mean ([6]; SHP-77, 3.17E-03 microM): 92.3% | Relative cell count (%) Mean ([6]; SHP-77, 3.18E-04 microM): 90.6% | Relative cell count (%) Mean ([6]; SHP-77, 3.18E-05 microM): 98.5% | Cell Count Activity Area [7]: 1.60 | Relative cell count (%) Mean ([7]; 1.00E+00 microM): 62.7% | Relative cell count (%) Mean ([7]; 1.00E-01 microM): 65.6% | Relative cell count (%) Mean ([7]; 1.00E-02 microM): 79.8% | Relative cell count (%) Mean ([7]; 1.00E-03 microM): 80.8% | Relative cell count (%) Mean ([7]; 1.01E-04 microM): 95.5% | Relative cell count (%) Mean ([7]; 3.16E-01 microM): 62.3% | Relative cell count (%) Mean ([7]; 3.17E-02 microM): 66.7% | Relative cell count (%) Mean ([7]; 3.17E-03 microM): 79.0% | Relative cell count (%) Mean ([7]; 3.18E-04 microM): 87.7% | Relative cell count (%) Mean ([7]; 3.18E-05 microM): 86.5% | EC50 [7, 8]: 8.24 nM | GI50 [7, 9]: > 1000 nM | IC50 [7, 10]: > 1000 nM
